Reference: patent publication US8399465B2, “Compounds with two fused bicyclic heteroaryl moieties as modulators of leukotriene A4 hydrolase” (Janssen Pharmaceutica NV, priority 2009, dated 2013)
Where a name gives a salt, the structure may show the parent alone.

What follows are molecules tested against T1, recombinant human LTA4 hydrolase (rhLTA4H) (Homo sapiens, UniProt P09960) (assay: Recombinant human LTA4 hydrolase assay for LTA4 hydrolase inhibitor activity). Settings: rhLTA4H, LTB4 by immunoassay; single determination or average of two or more; mark after value = form tested: ′ free base, ″ hydrochloride, ^ formate; read-out: IC50.
T1 construct: made in house; host or cells: Spodoptera frugiperda (Sf-9) cells, baculovirus (pFastBac1)
T1 sequence (P09960 1-611): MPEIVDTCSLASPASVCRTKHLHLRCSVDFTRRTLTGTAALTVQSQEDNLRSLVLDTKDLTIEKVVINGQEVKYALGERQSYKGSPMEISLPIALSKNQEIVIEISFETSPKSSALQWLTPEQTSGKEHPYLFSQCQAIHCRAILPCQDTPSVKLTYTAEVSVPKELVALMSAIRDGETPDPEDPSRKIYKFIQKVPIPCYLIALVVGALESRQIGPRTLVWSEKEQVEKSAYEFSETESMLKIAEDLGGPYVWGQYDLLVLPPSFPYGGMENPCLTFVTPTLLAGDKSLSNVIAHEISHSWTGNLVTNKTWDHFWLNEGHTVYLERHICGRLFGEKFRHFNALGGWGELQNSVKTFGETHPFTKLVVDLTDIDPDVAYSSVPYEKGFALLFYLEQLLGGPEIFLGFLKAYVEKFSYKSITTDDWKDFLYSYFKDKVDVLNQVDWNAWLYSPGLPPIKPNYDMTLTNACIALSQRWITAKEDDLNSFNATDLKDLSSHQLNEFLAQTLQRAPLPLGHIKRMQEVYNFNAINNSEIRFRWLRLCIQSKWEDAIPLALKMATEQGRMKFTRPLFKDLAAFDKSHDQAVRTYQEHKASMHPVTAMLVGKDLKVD
Format: biochemical
Procedure: Assay 1: Recombinant Human LTA4 Hydrolase Assay for LTA4 Hydrolase Inhibitor Activity
Compounds of the present invention were tested for LTA4 hydrolase inhibitor activity against recombinant human LTA4 hydrolase (rhLTA4H). Vectors were prepared and used to express rhLTA4H essentially as follows: LTA4 hydrolase encoding DNA was amplified by polymerase chain reaction (PCR) using a human placental cDNA library as a template. […] The amplified 1.9 kb DNA fragment encoding LTA4 hydrolase was isolated and cloned into the pFastBac1 vector (Invitrogen). Recombinant baculovirus was generated as described by the manufacturer, and used to infect Spodoptera frugiperda (Sf-9) cells. […] The purified enzyme solution was adjusted to contain 0.29 mg/mL LTA4 hydrolase, 50 mM Tris (pH 8.0), 150 mM NaCl, 5 mM dithiothreitol, 50% glycerol, and EDTA-free Complete protease inhibitor cocktail (Roche).
LTA4 substrate was prepared from the methyl ester of LTA4 (Cayman Chemical) by treatment with 67 equiv of NaOH under nitrogen at rt for 40 min. The LTA4 substrate in its free acid form was kept frozen at −80° C. until needed. Each compound was diluted to different concentrations in assay buffer (from Assay Designs) containing 10% DMSO. A 25-μL aliquot of each compound dilution was incubated for 10 min at rt with an equal volume of assay buffer containing 10 ng of recombinant human LTA4H. The solution was then adjusted to 200 μL with assay buffer. […] Each reaction was carried out at rt for 30 min. The reaction was stopped by diluting 10 μL of the reaction mixture with 200 μL of assay buffer. LTB4 was quantified in the diluted sample by a commercially available enzyme-linked immunoassay (Cayman Chemical Co.), as recommended by the manufacturer. Positive controls, under essentially identical conditions but without addition of an inhibitor compound, and negative controls, containing all assay components except enzyme, were routinely run in each experiment. IC50 values were determined by nonlinear regression of the activity data at different compound concentrations using Graphpad Prism 4.0, one site binding competition.
The values presented here are the result of a single determination or an average of two or more determinations. Compounds that were not tested are indicated as such by a “NT” designation.

| SMILES | IC50 |
| --- | --- |
| CC(=O)NC1CCN(Cc2coc3cc(Oc4nc5nc(C)ccc5s4)ccc23)CC1 [Example 250, N-{1-[6-(5-Methyl-thiazolo[4,5-b]pyridin-2-yloxy)-benzofuran-3-ylmethyl]-piperidin-4-yl}-acetamide formate] | 467 nM |
| CC(=O)N[C@H]1C[C@H]2CC[C@@H](C1)N2CCc1coc2cc(Oc3nc4ncccc4s3)ccc12 [Example 131, meso-endo-N-(8-{2-[6-(Thiazolo[4,5-b]pyridin-2-yloxy)-benzofuran-3-yl]-ethyl}-8-aza-bicyclo[3.2.1]oct-3-yl)acetamide] | 5 nM |
| O=C1Cc2cc(Cl)ccc2N1Cc1coc2cc(Oc3nc4ncccc4s3)ccc12 [Example 401, 5-Chloro-1-[6-(thiazolo[4,5-b]pyridin-2-yloxy)-benzofuran-3-ylmethyl]-1,3-dihydro-indol-2-one] | 1020 nM |
| CC(=O)N1C[C@H]2CC[C@@H](C1)N2Cc1cc2ncc(Oc3nc4ncccc4s3)cc2o1 [Example 338, meso-1-{8-[6-(Thiazolo[4,5-b]pyridin-2-yloxy)-furo[3,2-b]pyridin-2-ylmethyl]-3,8-diaza-bicyclo[3.2.1]oct-3-yl}-ethanone formate] | 450 nM |
| Cn1cc(CN2CCOCC2)c2ccc(Oc3nc4ccccc4s3)cc21 [Example 61, 2-(1-Methyl-3-morpholin-4-ylmethyl-1H-indol-6-yloxy)-benzothiazole] | 610 nM |
| CCn1c(CN2CCCCC2)cc2cc(Oc3nc4ccccc4s3)ccc21 [Example 62, 2-(1-Ethyl-2-piperidin-1-ylmethyl-1H-indol-5-yloxy)-benzothiazole] | 382 nM |
| CC(=O)N1C[C@@H]2C[C@H]1CN2Cc1cc2cc(Oc3nc4cccnc4s3)ccc2o1 [Example 121, (1S,4S)-1-{5-[5-(Thiazolo[5,4-b]pyridin-2-yloxy)-benzofuran-2-ylmethyl]-2,5-diaza-bicyclo[2.2.1]hept-2-yl}-ethanone] | 488 nM |
| CC(=O)N1C[C@H]2CC[C@@H](C1)N2CCc1coc2cc(Oc3nc4ncccc4s3)ccc12 [Example 130, meso-1-(8-{2-[6-(Thiazolo[4,5-b]pyridin-2-yloxy)-benzofuran-3-yl]-ethyl}-3,8-diaza-bicyclo[3.2.1]oct-3-yl)-ethanone] | 5 nM |
| CC(=O)N1C[C@H]2CC[C@@H](C1)N2Cc1cc2ccc(Oc3nc4cccnc4s3)cc2o1 [Example 124, meso-1-{8-[6-(Thiazolo[5,4-b]pyridin-2-yloxy)-benzofuran-2-ylmethyl]-3,8-diaza-bicyclo[3.2.1]oct-3-yl}-ethanone] | 1470 nM |
| CCn1c(CN2CCOCC2)cc2cc(Oc3nc4ccccc4s3)ccc21 [Example 63, 2-(1-Ethyl-2-morpholin-4-ylmethyl-1H-indol-5-yloxy)-benzothiazole] | 1640 nM |
| CC(=O)N(CC(=O)O)[C@H]1C[C@H]2CC[C@@H](C1)N2Cc1c[nH]c2cc(Oc3nc4ccccc4s3)ccc12 [Example 48, meso-endo-(Acetyl-{8-[6-(benzothiazol-2-yloxy)-1H-indol-3-ylmethyl]-8-aza-bicyclo[3.2.1]oct-3-yl}-amino)-acetic acid] | 679 nM |
| NC(=O)N1C[C@@H]2C[C@H]1CN2Cc1cc2ncc(Oc3nc4ncccc4s3)cc2o1 [Example 337, (1S,4S)-5-[6-(Thiazolo[4,5-b]pyridin-2-yloxy)-furo[3,2-b]pyridin-2-ylmethyl]-2,5-diaza-bicyclo[2.2.1]heptane-2-carboxylic acid amide formate] | 270 nM |
| CC(=O)N(Cc1coc2cc(Oc3nc4ncccc4s3)ccc12)[C@H]1CN2CCC1CC2 [Example 404, (R)—N-(1-Aza-bicyclo[2.2.2]oct-3-yl)-N-[6-(thiazolo[4,5-b]pyridin-2-yloxy)-benzofuran-3-ylmethyl]-acetamide formate] | 2 nM |
| O=C1CCCN1C1CCN(Cc2cc3ncc(Oc4nc5ncccc5s4)cc3o2)CC1 [Example 341, 1-{1-[6-(Thiazolo[4,5-b]pyridin-2-yloxy)-furo[3,2-b]pyridin-2-ylmethyl]-piperidin-4-yl}-pyrrolidin-2-one] | 470 nM |

Continued, values first:

| IC50 | SMILES |
| --- | --- |
| 40 nM | c1cnc(N2CCN(Cc3coc4cc(Oc5nc6ncccc6s5)ccc34)CC2)nc1 [Example 292, 2-[3-(4-Pyrimidin-2-yl-piperazin-1-ylmethyl)-benzofuran-6-yloxy]-thiazolo[4,5-b]pyridine formate] |
| 170 nM | CCOC(=O)C1CCN(CCc2coc3cc(Oc4nc5ccccc5s4)ccc23)CC1 [Example 149, 1-{2-[6-(Benzothiazol-2-yloxy)-benzofuran-3-yl]-ethyl}-piperidine-4-carboxylic acid ethyl ester] |
| 150 nM | CN(C)CCCN(C)C(=O)c1coc2cc(Oc3nc4ncccc4s3)ccc12 [Example 388, 6-(Thiazolo[4,5-b]pyridin-2-yloxy)-benzofuran-3-carboxylic acid (3-dimethylamino-propyl)-methyl-amide] |
| 169 nM | Fc1cnc2sc(Oc3ccc4c(CN5CCOCC5)c[nH]c4c3)nc2c1 [Example 60, 6-Fluoro-2-(3-morpholin-4-ylmethyl-1H-indol-6-yloxy)-thiazolo[5,4-b]pyridine] |
| 117 nM | c1cnc2nc(Oc3ccc4cc(CN5CCCCC5)sc4c3)sc2c1 [Example 136, 2-(2-Piperidin-1-ylmethyl-benzo[b]thiophen-6-yloxy)-thiazolo[4,5-b]pyridine] |
| < 1 nM | CCN(Cc1coc2cc(Oc3nc4ncccc4s3)ccc12)C1CCCCC1 [Example 318, Cyclohexyl-ethyl-[6-(thiazolo[4,5-b]pyridin-2-yloxy)-benzofuran-3-ylmethyl]-amine formate] |
| 20 nM | CCOC(=O)CCN(C)Cc1coc2cc(Oc3nc4ncccc4s3)ccc12 [Example 334, 3-{Methyl-[6-(thiazolo[4,5-b]pyridin-2-yloxy)-benzofuran-3-ylmethyl]-amino}-propionic acid ethyl ester] |
| 77 nM | c1ccc2sc(Oc3ccc4c(CN5CCCCC5)coc4c3)nc2c1 [Example 405, 2-(3-Piperidin-1-ylmethyl-benzofuran-6-yloxy)-benzothiazole] |
| 169 nM | NC(=O)C1CCN(Cc2cc3ccc(Oc4nc5ncccc5s4)cc3s2)CC1 [Example 138, 1-[6-(Thiazolo[4,5-b]pyridin-2-yloxy)-benzo[b]thiophen-2-ylmethyl]-piperidine-4-carboxylic acid amide] |
| 100 nM | COC(=O)c1ccc(C(=O)NCc2coc3cc(Oc4nc5ncccc5s4)ccc23)cc1 [Example 393, N-[6-(Thiazolo[4,5-b]pyridin-2-yloxy)-benzofuran-3-ylmethyl]-terephthalamic acid methyl ester] |
| 108 nM | CC(=O)NC1CCN(Cc2coc3cc(Oc4nc5ncc(Cl)cc5s4)ccc23)CC1 [Example 254, N-{1-[6-(6-Chloro-thiazolo[4,5-b]pyridin-2-yloxy)-benzofuran-3-ylmethyl]-piperidin-4-yl}-acetamide formate] |
| 230 nM | NS(=O)(=O)c1ccc(CCNCc2coc3cc(Oc4nc5ccccc5s4)ccc23)cc1 [Example 311, 4-(2-{[6-(Benzothiazol-2-yloxy)-benzofuran-3-ylmethyl]-amino}-ethyl)-benzenesulfonamide] |
| 153 nM | C[C@H]1COCCN1Cc1cc2cc(Oc3nc4ncccc4s3)ccc2o1 [Example 98, (3S)-2-[2-(3-Methyl-morpholin-4-ylmethyl)-benzofuran-5-yloxy]-thiazolo[4,5-b]pyridine] |
| 24 nM | CN1CCC(N(C)Cc2coc3cc(Oc4nc5ncccc5s4)ccc23)CC1 [Example 294, Methyl-(1-methyl-piperidin-4-yl)-[6-(thiazolo[4,5-b]pyridin-2-yloxy)-benzofuran-3-ylmethyl]-amine] |
